How the values were obtained:
[1] = molecular target: T4moF, bacterial oxidoreductase (Ectopseudomonas mendocina, UniProt Q03304); test: reduction of MRF followed at […] nm, anaerobic; format: biochemical; settings: electron acceptor MRF; 4 nM T4moF; 1 mM NADH
[2] = molecular target: human homolog of mouse Rieske-type ferredoxin (HRF) (Homo sapiens, UniProt Q8TAC1); test: optical absorption spectrum of purified protein; format: binding; settings: bound as purified
human homolog of mouse Rieske-type ferredoxin (HRF), sequence (Q8TAC1 2-157 limits assumed): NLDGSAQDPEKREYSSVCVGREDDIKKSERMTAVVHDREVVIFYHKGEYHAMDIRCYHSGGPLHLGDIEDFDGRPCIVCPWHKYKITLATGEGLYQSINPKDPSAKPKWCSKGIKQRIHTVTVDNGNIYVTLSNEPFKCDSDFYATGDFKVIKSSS

T4moF, bacterial oxidoreductase, sequence (Q03304 whole entry): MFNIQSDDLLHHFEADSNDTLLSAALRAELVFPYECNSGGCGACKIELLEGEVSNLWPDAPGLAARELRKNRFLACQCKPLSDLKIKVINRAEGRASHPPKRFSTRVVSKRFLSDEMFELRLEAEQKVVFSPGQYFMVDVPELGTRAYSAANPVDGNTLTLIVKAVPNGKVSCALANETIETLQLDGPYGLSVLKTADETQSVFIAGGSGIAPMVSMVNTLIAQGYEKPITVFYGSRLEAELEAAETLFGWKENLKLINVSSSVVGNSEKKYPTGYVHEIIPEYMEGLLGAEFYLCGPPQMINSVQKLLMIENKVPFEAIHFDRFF

SMILES | reduction of MRF followed at 460 nm, anaerobic [1] | optical absorption spectrum of purified protein [2]
NC(=O)C1=CN([C@@H]2O[C@H](COP(=O)(O)OP(=O)(O)OC[C@H]3O[C@@H](n4cnc5c(N)ncnc54)[C@H](O)[C@@H]3O)[C@@H](O)[C@H]2O)C=CC1 [NADH] | measured at multiple MRF concentrations in the presence of saturating NADH | –
[S]1[Fe][S][Fe]1 [[2Fe–2S] cluster] | – | Expression and purification of HRF following the same protocol resulted in similar purity and [2Fe–2S]
